The numbers were not newly measured in patent US4439425A, “Peptide derivatives” (Ciba-Geigy Corporation, priority 1979, dated 1984), which cites them from elsewhere.

The subject of this data set is lymphocytes. The settings on record: Z. Immun.-Forschung 153, 11-22 (1977).

Take “murein lipoprotein: murein lipoprotein of the outer cell wall of Escherichia coli”: the “in vitro mitogenic activity” value is given as “in vitro mitogenic activity towards some lymphocytes”.
